Test results from US11001586B2, “Alkyl pyrrolopyrimidine analogs and methods of making and using same” (The University of North Carolina at Chapel Hill, priority 2016, dated 2021).

Tests used:
Mer tyrosine kinase = Mer tyrosine kinase (Homo sapiens (Human), UniProt Q12866); assay: Evaluation of activity against Mer tyrosine kinase; type: biochemical
Tyro3 tyrosine kinase = Tyro3 tyrosine kinase (Homo sapiens (Human), UniProt Q06418); assay: Evaluation of activity against Tyro3 tyrosine kinase; type: biochemical
Tyro3 tyrosine kinase, sequence (Q06418 41-890): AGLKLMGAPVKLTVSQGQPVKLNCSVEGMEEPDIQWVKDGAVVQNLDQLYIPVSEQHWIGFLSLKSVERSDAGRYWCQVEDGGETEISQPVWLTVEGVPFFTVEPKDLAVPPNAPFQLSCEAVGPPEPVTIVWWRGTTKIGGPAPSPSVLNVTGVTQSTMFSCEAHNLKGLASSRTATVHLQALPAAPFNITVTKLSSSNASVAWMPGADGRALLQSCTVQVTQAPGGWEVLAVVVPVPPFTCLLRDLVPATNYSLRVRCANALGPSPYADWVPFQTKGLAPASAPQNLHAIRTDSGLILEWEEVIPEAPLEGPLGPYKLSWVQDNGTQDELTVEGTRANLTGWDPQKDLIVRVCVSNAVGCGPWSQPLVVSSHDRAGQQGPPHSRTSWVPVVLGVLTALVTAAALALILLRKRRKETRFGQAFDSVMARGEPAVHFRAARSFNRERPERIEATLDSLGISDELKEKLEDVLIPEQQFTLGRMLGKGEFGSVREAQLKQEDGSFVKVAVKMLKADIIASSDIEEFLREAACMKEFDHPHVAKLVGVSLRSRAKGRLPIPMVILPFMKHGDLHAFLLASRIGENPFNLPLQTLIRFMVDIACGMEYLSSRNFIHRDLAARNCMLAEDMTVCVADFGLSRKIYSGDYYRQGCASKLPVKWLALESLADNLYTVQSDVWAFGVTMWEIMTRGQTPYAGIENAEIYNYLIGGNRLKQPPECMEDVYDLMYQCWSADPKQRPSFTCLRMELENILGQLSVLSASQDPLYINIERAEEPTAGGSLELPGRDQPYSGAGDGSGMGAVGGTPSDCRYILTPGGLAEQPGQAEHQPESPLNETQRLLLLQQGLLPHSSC

Mer tyrosine kinase, sequence (Q12866 21-999): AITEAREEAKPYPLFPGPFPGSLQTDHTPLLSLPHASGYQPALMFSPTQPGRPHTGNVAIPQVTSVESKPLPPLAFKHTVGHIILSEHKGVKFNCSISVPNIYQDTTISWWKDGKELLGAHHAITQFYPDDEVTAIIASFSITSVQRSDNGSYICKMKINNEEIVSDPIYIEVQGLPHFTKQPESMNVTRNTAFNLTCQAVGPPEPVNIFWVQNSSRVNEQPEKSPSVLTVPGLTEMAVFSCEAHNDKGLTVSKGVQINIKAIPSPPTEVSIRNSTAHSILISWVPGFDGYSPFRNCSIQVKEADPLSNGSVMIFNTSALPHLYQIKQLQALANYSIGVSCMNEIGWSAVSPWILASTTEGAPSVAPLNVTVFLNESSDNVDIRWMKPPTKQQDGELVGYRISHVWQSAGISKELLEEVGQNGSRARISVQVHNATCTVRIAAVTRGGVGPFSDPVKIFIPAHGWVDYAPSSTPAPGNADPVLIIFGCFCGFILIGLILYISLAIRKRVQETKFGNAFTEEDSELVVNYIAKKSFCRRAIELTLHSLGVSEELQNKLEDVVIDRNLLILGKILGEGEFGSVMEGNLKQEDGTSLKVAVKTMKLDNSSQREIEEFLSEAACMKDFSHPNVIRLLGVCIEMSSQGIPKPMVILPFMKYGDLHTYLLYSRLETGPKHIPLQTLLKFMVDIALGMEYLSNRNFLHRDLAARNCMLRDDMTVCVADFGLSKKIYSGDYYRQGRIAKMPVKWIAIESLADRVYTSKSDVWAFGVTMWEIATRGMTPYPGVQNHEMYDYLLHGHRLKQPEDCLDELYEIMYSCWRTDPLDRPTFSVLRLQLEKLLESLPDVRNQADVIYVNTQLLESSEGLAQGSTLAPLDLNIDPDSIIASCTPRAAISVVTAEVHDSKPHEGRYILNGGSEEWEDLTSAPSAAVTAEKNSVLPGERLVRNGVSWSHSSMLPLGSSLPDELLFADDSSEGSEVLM

Work on `CCC[C@H](C)Nc1ncc2c(C3CCN(C(=O)C4CCN(CCF)CC4)CC3)cn([C@H]3CC[C@H](O)CC3)c2n1` [compound 36, (1-(2-fluoroethyl)piperidin-4-yl)(4-(7-((1R,4S)-4-hydroxycyclohexyl)-2-(((S)-pentan-2-yl)amino)-7H-pyrrolo[2,3-d]pyrimidin-5-yl)piperidin-1-yl)methanone] yielded an IC50 (Mer tyrosine kinase) of less than 10 nM and an IC50 (Tyro3 tyrosine kinase) of 10 to 100 nM.

Compound `CC[C@H]1C[C@@H]1Nc1ncc2c(C3CCN(C(=O)c4ccncc4)CC3)cn([C@H]3CC[C@H](O)CC3)c2n1` [compound 42, (4-(2-(((1S,2S)-2-ethylcyclopropyl)amino)-7-((1R,4S)-4-hydroxycyclohexyl)-7H-pyrrolo[2,3-d]pyrimidin-5-yl)piperidin-1-yl)(pyridin-4-yl)methanone] has an IC50 (Mer tyrosine kinase) of less than 10 nM and an IC50 (Tyro3 tyrosine kinase) of 100 to 1000 nM.

In the case of `CC[C@@H]1C[C@H]1Nc1ncc2c(C3CCN(C(=O)c4ccncc4)CC3)cn([C@H]3CC[C@H](O)CC3)c2n1` [compound 43, (4-(2-(((1R,2R)-2-ethylcyclopropyl)amino)-7-((1R,4R)-4-hydroxycyclohexyl)-7H-pyrrolo[2,3-d]pyrimidin-5-yl)piperidin-1-yl)(pyridin-4-yl)methanone], the IC50 (Mer tyrosine kinase) is reported as less than 10 nM and the IC50 (Tyro3 tyrosine kinase) is reported as 100 to 1000 nM.

`CCC[C@H](C)Nc1ncc2c(C3CCN(C4CCN(C)CC4)CC3)cn([C@H]3CC[C@H](O)CC3)c2n1` [compound 52, (1S,4R)-4-(5-(1′-methyl-[1,4′-bipiperidin]-4-yl)-2-(((S)-pentan-2-yl)amino)-7H-pyrrolo[2,3-d]pyrimidin-7-yl)cyclohexan-1-ol] was tested, and the IC50 (Mer tyrosine kinase) was less than 10 nM and the IC50 (Tyro3 tyrosine kinase) was 10 to 100 nM.

Work on `CCC[C@H](C)Nc1ncc2c(C3CCN(CC4CCN(C)CC4)CC3)cn([C@H]3CC[C@H](O)CC3)c2n1` [compound 54, (1S,4R)-4-(5-(1-((1-methylpiperidin-4-yl)methyl)piperidin-4-yl)-2-(((S)-pentan-2-yl)amino)-7H-pyrrolo[2,3-d]pyrimidin-7-yl)cyclohexan-1-ol] yielded an IC50 (Mer tyrosine kinase) of less than 10 nM and an IC50 (Tyro3 tyrosine kinase) of 10 to 100 nM.

With `CCC[C@H](C)Nc1ncc2c(C3CCN(C(=O)c4nccs4)CC3)cn([C@H]3CC[C@H](O)CC3)c2n1` [compound 57, (4-(7-((1R,4S)-4-hydroxycyclohexyl)-2-(((S)-pentan-2-yl)amino)-7H-pyrrolo[2,3-d]pyrimidin-5-yl)piperidin-1-yl)(thiazol-2-yl)methanone] the IC50 (Mer tyrosine kinase) was less than 10 nM and the IC50 (Tyro3 tyrosine kinase) was 100 to 1000 nM.

`CCC[C@H](C)Nc1ncc2c(C3CCN(C(=O)c4cncs4)CC3)cn([C@H]3CC[C@H](O)CC3)c2n1` [compound 59, (4-(7-((1R,4S)-4-hydroxycyclohexyl)-2-(((S)-pentan-2-yl)amino)-7H-pyrrolo[2,3-d]pyrimidin-5-yl)piperidin-1-yl)(thiazol-5-yl)methanone] was tested, and the IC50 (Mer tyrosine kinase) was less than 10 nM and the IC50 (Tyro3 tyrosine kinase) was 10 to 100 nM.

`CCC[C@H](C)Nc1ncc2c(C3CCN(C(=O)c4ccc[nH]4)CC3)cn([C@H]3CC[C@H](O)CC3)c2n1` [compound 60, (4-(7-((1R,4S)-4-hydroxycyclohexyl)-2-(((S)-pentan-2-yl)amino)-7H-pyrrolo[2,3-d]pyrimidin-5-yl)piperidin-1-yl)(1H-pyrrol-2-yl)methanone] showed an IC50 (Mer tyrosine kinase) of less than 10 nM and an IC50 (Tyro3 tyrosine kinase) of 100 to 1000 nM.

Compound `CCC[C@H](C)Nc1ncc2c(C3CCN(C(=O)c4cc[nH]c4)CC3)cn([C@H]3CC[C@H](O)CC3)c2n1` [compound 61, (4-(7-((1R,4S)-4-hydroxycyclohexyl)-2-(((S)-pentan-2-yl)amino)-7H-pyrrolo[2,3-d]pyrimidin-5-yl)piperidin-1-yl)(1H-pyrrol-3-yl)methanone] has an IC50 (Mer tyrosine kinase) of less than 10 nM and an IC50 (Tyro3 tyrosine kinase) of 100 to 1000 nM.

`CCC[C@H](C)Nc1ncc2c(C3CCN(C(=O)c4ncc[nH]4)CC3)cn([C@H]3CC[C@H](O)CC3)c2n1` [compound 62, (4-(7-((1r,4S)-4-hydroxycyclohexyl)-2-(((S)-pentan-2-yl)amino)-7H-pyrrolo[2,3-d]pyrimidin-5-yl)piperidin-1-yl)(1H-imidazol-2-yl)methanone] gave an IC50 (Mer tyrosine kinase) of less than 10 nM and an IC50 (Tyro3 tyrosine kinase) of 100 to 1000 nM.

`CCC(CC)CNc1ncc2c(C3CCN(C(=O)c4cc(C)nc(C)c4)CC3)cn([C@H]3CC[C@H](O)CC3)c2n1` [compound 69, (2,6-dimethylpyridin-4-yl)(4-(2-((2-ethylbutyl)amino)-7-((1r,4r)-4-hydroxycyclohexyl)-7H-pyrrolo[2,3-d]pyrimidin-5-yl)piperidin-1-yl)methanone] was tested, and the IC50 (Mer tyrosine kinase) was less than 10 nM and the IC50 (Tyro3 tyrosine kinase) was 10 to 100 nM.

With `Cc1cc(C(=O)N2CCC(c3cn([C@H]4CC[C@H](O)CC4)c4nc(NCCC5CC5)ncc34)CC2)cc(C)n1` [compound 72, (4-(2-((2-cyclopropylethyl)amino)-7-((1R,4R)-4-hydroxycyclohexyl)-7H-pyrrolo[2,3-d]pyrimidin-5-yl)piperidin-1-yl)(2,6-dimethylpyridin-4-yl)methanone] the IC50 (Mer tyrosine kinase) was less than 10 nM and the IC50 (Tyro3 tyrosine kinase) was 100 to 1000 nM.

Compound `Cc1cc(C(=O)N2CCC(c3cn([C@H]4CC[C@H](O)CC4)c4nc(N[C@@H](C)c5ccc(F)cc5)ncc34)CC2)cc(C)n1` [compound 75, (2,6-dimethylpyridin-4-yl)(4-(2-(((S)-1-(4-fluorophenyl)ethyl)amino)-7-((1R,4S)-4-hydroxycyclohexyl)-7H-pyrrolo[2,3-d]pyrimidin-5-yl)piperidin-1-yl)methanone] has an IC50 (Mer tyrosine kinase) of less than 10 nM and an IC50 (Tyro3 tyrosine kinase) of 10 to 100 nM.

Work on `CCC[C@H](C)Nc1ncc2c(C3CCN(C(=O)c4cc(OC)cc(OC)c4)CC3)cn([C@H]3CC[C@H](O)CC3)c2n1` [compound 80, (3,5-dimethoxyphenyl)(4-(7-((1R,4S)-4-hydroxycyclohexyl)-2-(((S)-pentan-2-yl)amino)-7H-pyrrolo[2,3-d]pyrimidin-5-yl)piperidin-1-yl)methanone] yielded an IC50 (Mer tyrosine kinase) of less than 10 nM and an IC50 (Tyro3 tyrosine kinase) of 100 to 1000 nM.

`CCC[C@H](C)Nc1ncc2c(C3CCN(C(=O)c4cc(F)cc(F)c4)CC3)cn([C@H]3CC[C@H](O)CC3)c2n1` [compound 81, (3,5-difluorophenyl)(4-(7-((1R,4S)-4-hydroxycyclohexyl)-2-(((S)-pentan-2-yl)amino)-7H-pyrrolo[2,3-d]pyrimidin-5-yl)piperidin-1-yl)methanone] showed an IC50 (Mer tyrosine kinase) of less than 10 nM and an IC50 (Tyro3 tyrosine kinase) of 100 to 1000 nM.

With `CCC[C@H](C)Nc1ncc2c(C3CCN(C(=O)c4ccc(N)cc4)CC3)cn([C@H]3CC[C@H](O)CC3)c2n1` [compound 82, (4-aminophenyl)(4-(7-((1R,4S)-4-hydroxycyclohexyl)-2-(((S)-pentan-2-yl)amino)-7H-pyrrolo[2,3-d]pyrimidin-5-yl)piperidin-1-yl)methanone] the IC50 (Mer tyrosine kinase) was less than 10 nM and the IC50 (Tyro3 tyrosine kinase) was 100 to 1000 nM.

In the case of `CCC[C@H](C)Nc1ncc2c(C3CCN(C(=O)c4ccc(NC)cc4)CC3)cn([C@H]3CC[C@H](O)CC3)c2n1` [compound 83, (4-(7-((1R,4S)-4-hydroxycyclohexyl)-2-(((S)-pentan-2-yl)amino)-7H-pyrrolo[2,3-d]pyrimidin-5-yl)piperidin-1-yl)(4-(methylamino)phenyl)methanone], the IC50 (Mer tyrosine kinase) is reported as less than 10 nM and the IC50 (Tyro3 tyrosine kinase) is reported as 10 to 100 nM.

In the case of `CCC[C@H](C)Nc1ncc2c(C3CCN(C(=O)c4ccc(Cl)cc4)CC3)cn([C@H]3CC[C@H](O)CC3)c2n1` [compound 84, (4-chlorophenyl)(4-(7-((1R,4S)-4-hydroxycyclohexyl)-2-(((S)-pentan-2-yl)amino)-7H-pyrrolo[2,3-d]pyrimidin-5-yl)piperidin-1-yl)methanone], the IC50 (Mer tyrosine kinase) is reported as less than 10 nM and the IC50 (Tyro3 tyrosine kinase) is reported as 100 to 1000 nM.

For `CCC[C@H](C)Nc1ncc2c(C3CCN(C(=O)c4ccc(CNC)cc4)CC3)cn([C@H]3CC[C@H](O)CC3)c2n1` [compound 85, (4-(7-((1R,4S)-4-hydroxycyclohexyl)-2-(((S)-pentan-2-yl)amino)-7H-pyrrolo[2,3-d]pyrimidin-5-yl)piperidin-1-yl)(4-((methylamino)methyl)phenyl)methanone], the IC50 (Mer tyrosine kinase) was less than 10 nM and the IC50 (Tyro3 tyrosine kinase) was 10 to 100 nM.

`CCC[C@H](C)Nc1ncc2c(C3CCN(C(=O)c4cc(C)nc(C)c4)CC3)cn([C@H]3CC[C@H](CO)CC3)c2n1` [compound 86] gave an IC50 (Mer tyrosine kinase) of less than 10 nM and an IC50 (Tyro3 tyrosine kinase) of 10 to 100 nM.

`CCC[C@H](C)Nc1ncc2c(C3CCN(C(=O)c4ccc(CN(C)C)cc4)CC3)cn([C@H]3CC[C@H](O)CC3)c2n1` [compound 87, (4-((dimethylamino)methyl)phenyl)(4-(7-((1R,4S)-4-hydroxycyclohexyl)-2-(((S)-pentan-2-yl)amino)-7H-pyrrolo[2,3-d]pyrimidin-5-yl)piperidin-1-yl)methanone] was tested, and the IC50 (Mer tyrosine kinase) was less than 10 nM and the IC50 (Tyro3 tyrosine kinase) was 10 to 100 nM.

`CCC[C@H](C)Nc1ncc2c(C3CCN(C(=O)c4cc(C)nc(C)c4)CC3)cn([C@H]3CC[C@H](C(F)F)CC3)c2n1` [compound 88, (4-(7-((1R,4S)-4-(difluoromethyl)cyclohexyl)-2-(((S)-pentan-2-yl)amino)-7H-pyrrolo[2,3-d]pyrimidin-5-yl)piperidin-1-yl)(2,6-dimethylpyridin-4-yl)methanone] was tested, and the IC50 (Mer tyrosine kinase) was less than 10 nM and the IC50 (Tyro3 tyrosine kinase) was 100 to 1000 nM.

For `CCC[C@H](C)Nc1ncc2c(C3CCN(C(=O)c4ccc(F)cc4)CC3)cn([C@H]3CC[C@H](O)CC3)c2n1` [compound 89, (4-fluorophenyl)(4-(7-((1R,4S)-4-hydroxycyclohexyl)-2-(((S)-pentan-2-yl)amino)-7H-pyrrolo[2,3-d]pyrimidin-5-yl)piperidin-1-yl)methanone], the IC50 (Mer tyrosine kinase) was less than 10 nM and the IC50 (Tyro3 tyrosine kinase) was 100 to 1000 nM.

In the case of `C[C@H](Nc1ncc2c(C3CCN(CC4CCCCC4)CC3)cn([C@H]3CC[C@H](O)CC3)c2n1)c1ccccc1` [compound 92, (1S,4R)-4-(5-(1-(cyclohexylmethyl)piperidin-4-yl)-2-(((S)-1-phenylethyl)amino)-7H-pyrrolo[2,3-d]pyrimidin-7-yl)cyclohexan-1-ol], the IC50 (Mer tyrosine kinase) is reported as less than 10 nM and the IC50 (Tyro3 tyrosine kinase) is reported as 100 to 1000 nM.

`CCC[C@H](C)Nc1ncc2c(C3CCN(C(=O)c4cc(C)nc(C)c4)CC3)cn([C@H]3CC[C@H](N)CC3)c2n1` [compound 95, (4-(7-((1R,4S)-4-aminocyclohexyl)-2-(((S)-pentan-2-yl)amino)-7H-pyrrolo[2,3-d]pyrimidin-5-yl)piperidin-1-yl)(2,6-dimethylpyridin-4-yl)methanone] showed an IC50 (Mer tyrosine kinase) of less than 10 nM and an IC50 (Tyro3 tyrosine kinase) of 10 to 100 nM.

With `CCC[C@H](C)Nc1ncc2c(C3CCN(C)C3)cn([C@H]3CC[C@H](O)CC3)c2n1` (stereo partly drawn) [compound 99, (1S,4R)-4-(5-(1-methylpyrrolidin-3-yl)-2-(((S)-pentan-2-yl)amino)-7H-pyrrolo[2,3-d]pyrimidin-7-yl)cyclohexan-1-ol] the IC50 (Mer tyrosine kinase) was less than 10 nM and the IC50 (Tyro3 tyrosine kinase) was 100 to 1000 nM.
